Measurements published in patent publication US20150335678A1, “METHOD OF ACTIVATING STEM CELLS IN AN ANIMAL AND THE USE OF CHLORINE DIOXIDE FOR PREPARING MEDICINES FOR ACTIVATING STEM CELLS IN AN ANIMAL” (priority 2012, published 2015).

Experiments:
[1] = tested on: gastric ulcer; test: hp-positive gastric ulcer patients: symptoms and ulcer healing by gastroscopy (Example 11); assay type: in vivo, human
Description: The subjects consisted of 90 gastric ulcer patients (50 male and 40 female) of hp-positive aged from 33 to 75 years old (average age: 41 years old). The subjects were randomly assigned to treatment group and control group with 30 patients in treatment group and 30 in control group 1 and 30 in control group 2 respectively.
Allow the solution to mix for 3-5 minutes. The capsule that containing activating agent of stem cells was made by injecting the mixed solution into the soft capsule of number 0.
The capsule that containing activating agent of stem cells was administered to the patients in treatment group three times a day and a pill each time; 30 minutes before meals, patients in control group 1 took orally 15 mg colloidal bismuth and 100 mg pectin tinidazole for three times a day. And 20 mg Omeprazole two times a day; patients in control group 2 took orally […] amoxicillin and 500 mg clindamycin three times a day and 20 mg esomeprazole twice a day before meals. Both groups were administered for a consecutive week. To observe the improvement of the clinical symptoms of the three cases two weeks after administration, such as stomachache, nausea and sour regurgitation. Gastroscopy and urease test of gastric antral mucosa were conducted after 30 days to observe ulcer healing and eradication of hp.
Criteria for measuring the effects: the changes of conditions before and after treatment and the time the symptoms disappear were recorded precisely. Diagnostic criteria are the followings: 1) complete healing: the symptoms disappear, such as ache, heartburn, nausea, sour regurgitation, abdominal distention; cure of ulceration under a gastroscope and the inflammation is gone; H pylori is negative. 2) Almost healing: subjective symptom disappear, and more than 90% ulceration are healed and the inflammation around is gone. 3) Effective: more than half of the ulcer surface shrink or more than half of ulceration reduced; 4) Ineffective: less than half of the ulceration are healed or haven't been changed, or even the ulcer surface or ulceration increase. To conduct rapid urease test by taking one sample of gastric mucosa at antrum of stomach and gastric body respectively, if the results are negative, it means Hp negative conversing.

[2] = tested on: GFAP-positive cells (astrocytes), NeuN-positive cells (immature neurons); test: NeuN-positive, GFAP-positive and BrdU-positive/GFAP-positive cells in the SVZ region; assay type: in vivo, Sprague-Dawley rats
Description: (§1) Male Sprague-Dawley rats with the age of 12 weeks and weight of 250^˜280 g were used in the experiment after acclimating for a week.
(§2) A middle cerebral artery occlusion model was first established in compliance with the method of Longa E Z et al. (Longa E Z, et al. Reversible middle cerebral artery occlusion without craniectomy in rats. Stroke 20:84-91, 1989). More specifically, 0.36 g/kg of 10% chloral hydrate was administered intraperitoneally to rats which had been fasted for 12 hours (although given free access to water) to anesthetize the rats. Next, a midline incision was made in the neck to expose the right common carotid artery. Then, the internal carotid artery and external carotid artery were separated, the posterior carotid artery, which is a branch of the external carotid artery, and the thyroidea arteria were coagulated and severed, the external carotid artery was ligated at the branch of the lingual artery and maxillary artery, a small puncture was formed in the external carotid artery, 4-0 Nylon suture was passed through the common carotid artery from the puncture, and gradually inserted into the internal carotid artery until there was resistance. The length of the Nylon suture was about 18^˜20 mm from the branch of the common carotid artery. As a result of occluding the middle cerebral artery with Nylon suture, an ischemic state was applied for 2 hours to create a middle cerebral artery occlusion model.
(§3) A cerebral ischemia/reperfusion injury model was established by removing the Nylon suture from the middle cerebral artery of the occlusion model and following reperfusion of blood.
(§4) The first solution was a mixed solution made of sodium chlorite with the concentration of 7.47% and sodium chloride with the concentration of 1.59% with deionized water; the second solution was made of citric acid with the concentration of 16.7% with deionized water. Same volume of solutions were taken out from different vessels with different volumes and mixed up. Allow the solution to mix for 3-5 minutes and dilute it five times with normal saline, and then filter it with 0.22 μm filter membrane of double-deck. The solution was immediately put into injector. The solution was prepared once being used.
(§5) Treatment group (120 rats): A cerebral ischemia/reperfusion injury model was established for the rats already. To administer chlorine dioxide solution everytime that prepared from procedure (3) through carotid artery after the second day the model has established, once a day for total ten days.
On day 5, 6, 12, 13, 19 and 20 after the model established, 50 mg/kg BrdU was injected intraperitoneally into 30 rats in each group. The rats were autopsied on day 7, 14 and 21 after the model established for preparation of frozen brain sections. The presences of NeuN-positive cells by immunochemical stain, glial fibrillory acidic protein (GFAP)-positive cells by immunochemical stain, and BrdU-Positive/GFAP Positive Cells by double-immunofluorescent stain in the SVZ region were analyzed. NeuN is a marker expressed on the immature neurons which are differentiated from neural stem cells. GFAP is a marker expressed on astrocytes which are also differentiated from neural stem cells.
The presence of NeuN-positive cells was analyzed using goat anti-NeuN monoclonal antibody. The presence of GFAP-positive cells was analyzed using goat anti-GFAP polyclonal antibody. The presence of BrdU-positive/GFAP-positive cells was analyzed by double-immunofluorescent stain using a combination of primary antibody of mouse anti-rat BrdU monoclonal antibody and secondary antibody of Rho-labeled rabbit anti-mouse antibody, and a combination of primary antibody of goat anti-GFAP polyclonal antibody and secondary antibody of FITC-labeled rabbit anti-goat antibody.
(§6) BRt(%)=(Bt−St)/(Mt−St)×100

[3] = tested on: rat; conditions: ClO2 276.5 mg/L, cited from earlier work
[4] = tested on: wound of rabbit; conditions: Jin Wei et al. 2011; cited from earlier work
[5] = tested on: BrdU-positive (migrating) cells; test: BrdU-positive (migrating) cells in the SVZ region; assay type: in vivo, Sprague-Dawley rats; conditions: for number of BrdU-positive cells in the SVZ region, migration (mean±SD): BrdU twice within 24 hours after model established
Description: as §1, §2, §3, §4, §5
Thirty Rats in each group were intraperitoneally injected twice with 50 mg/kg of BrdU within 24 hours after model established. The rats were autopsied on day 7, 14 and 21 after model established for preparation of frozen brain sections. The presence of BrdU-positive cells in the SVZ region was analyzed by immunochemical stain using mouse anti-rat BrdU monoclonal antibody.
as §6

SMILES: [O][Cl+][O-] [chlorine dioxide solution, chlorine dioxide]
- Symptoms disappear after a week (No.) ([1]; 30 hp-positive gastric ulcer patients per group, administered for a consecutive week, test capsule NaClO2 20%/NaCl 5% + citric acid 30% 1:1, one pill three times a day): 30
- Effective after 30 d (%) ([1]; 30 patients per group): 3.3%
- Healing after 30 d (%) ([1]; 30 patients per group): 3.3%
- Symptoms disappear after a week (%) ([1]; 30 patients per group, administered for a consecutive week): 100%
- Healing after 30 d (No.) ([1]; 30 patients per group, almost healing: more than 90% ulceration healed): 1
- Complete healing after 30 d (%) ([1]; 30 patients per group, gastroscopy): 93.3%
- Complete healing after 30 d (No.) ([1]; 30 patients per group, gastroscopy, administered for a consecutive week): 28
- Effective after 30 d (No.) ([1]; 30 patients per group, more than half of ulcer surface shrink): 1
- BRt: GFAP-positive cells in treatment group relative to model group = 100% ([2]; Day 7): 148.4%
- number of GFAP-positive cells in the SVZ (mean±SD) ([2]; Day 7, model group 66.3 ± 21.3, sham 2.5 ± 0.15, diluted solution via carotid artery once a day, ten days): 97.2 ± 29.3 No. of cells/mm2
- BRt: GFAP-positive cells in treatment group relative to model group = 100% ([2]; Day 14): 134.3%
- number of GFAP-positive cells in the SVZ (mean±SD) ([2]; Day 14, model group 58.6 ± 16.5, sham 1.39 ± 0.02): 78.2 ± 19.6 No. of cells/mm2
- BRt: GFAP-positive cells in treatment group relative to model group = 100% ([2]; Day 21): 162.4%
- number of GFAP-positive cells in the SVZ (mean±SD) ([2]; Day 21, model group 27.9 ± 12.4, sham 0): 45.3 ± 18.3 No. of cells/mm2
- presence of NeuN-positive cells (immature neurons) ([2]; treatment group, data not shown): confirmed
- presence of BrdU-positive/GFAP-positive cells in the SVZ region ([2]; treatment group, double-immunofluorescent stain, data not shown): confirmed
- accumulative toxicity classification of aqueous solution ([3]; NaClO2 200 mg/L, NaClO3): non-obvious accumulative toxic
- toxicity classification of aqueous solution ([3]; NaClO2 and NaClO3 200 mg/L, ClO2 mixed solution total concentration 553 mg/L): actually non-toxic
- effect on wound in animal test [4]: speeding haemostasis and promoting healing on wound
- BRt: BrdU-positive (migrating) cells in treatment group relative to model group = 100% ([5]; Day 7): 121.0%
- number of BrdU-positive cells in the SVZ region, migration (mean±SD) ([5]; Day 7, model group 136.56 ± 15.63, sham 2.85 ± 1.05, diluted solution via carotid artery once a day, ten days): 164.61 ± 16.3 No. cells/mm2
- BRt: BrdU-positive (migrating) cells in treatment group relative to model group = 100% ([5]; Day 14): 144.7%
- number of BrdU-positive cells in the SVZ region, migration (mean±SD) ([5]; Day 14, model group 78.6 ± 8.5, sham 3.39 ± 1.35): 112.2 ± 10.6 No. cells/mm2
- BRt: BrdU-positive (migrating) cells in treatment group relative to model group = 100% ([5]; Day 21): 227.1%
- number of BrdU-positive cells in the SVZ region, migration (mean±SD) ([5]; Day 21, model group 34.9 ± 5.48, sham 3.11 ± 1.05): 75.3 ± 8.39 No. cells/mm2
- distribution of BrdU-positive cells in SVZ region ([5]; treatment group, in model group only on the surface of the SVZ region): widely distributed from the surface to interior of the SVZ region
